Measurements from patent US8338565B2, “Macrocyclic compounds for inhibition of tumor necrosis factor alpha” (Ensemble Therapeutics Corporation, priority 2008, dated 2012).
Numbered stars: 1 amine (or outer) side, 2 acyl side, 3 side chain; on linkers, the order of the positions; unused ones are H or OH. Bridge positions count the residues as written; N and C are the ends. Square brackets hold non-standard residues; d marks the D form. Peptide text beside a SMILES is read from it. Tartaroyl(2R,3R-(OAc)2) = CC(=O)O[C@@H](C(=O)[*:1])[C@@H](OC(C)=O)C(=O)[*:2]; Phe(4-CF3) = N[C@@H](Cc1ccc(C(F)(F)F)cc1)C(=O)O; Bip = N[C@@H](Cc1ccc(-c2ccccc2)cc1)C(=O)O; dPhe(4-NH2) = Nc1ccc(C[C@@H](N)C(=O)O)cc1; Phe(3-OMe) = COc1cccc(C[C@H](N)C(=O)O)c1; Phe(4-Br) = N[C@@H](Cc1ccc(Br)cc1)C(=O)O; dPhe(4-Cl) = N[C@H](Cc1ccc(Cl)cc1)C(=O)O; Phe(4-NH2) = Nc1ccc(C[C@H](N)C(=O)O)cc1; dPhe(2-Cl) = N[C@H](Cc1ccccc1Cl)C(=O)O; dIgl = N[C@@H](C(=O)O)C1Cc2ccccc2C1; d(hPhe) = N[C@H](CCc1ccccc1)C(=O)O; mTyr = N[C@@H](Cc1cccc(O)c1)C(=O)O; d2Thi = N[C@H](Cc1cccs1)C(=O)O; Suc = O=C(CCC(=O)[*:2])[*:1]

Target: T1, TNFα / TNFα receptor (TNFα R1/Fc) (Homo sapiens, UniProt P01375)
T1 construct: purchased R&D Systems
T1 sequence (P01375 77-233 limits assumed, species assumed): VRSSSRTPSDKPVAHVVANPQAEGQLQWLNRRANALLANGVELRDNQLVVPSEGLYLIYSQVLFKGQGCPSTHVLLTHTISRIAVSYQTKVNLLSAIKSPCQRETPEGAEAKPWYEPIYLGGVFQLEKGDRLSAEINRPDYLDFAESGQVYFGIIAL
Experiment: Inhibition of binding of TNFα to the TNFα receptor (plate ELISA competition)
Details: Activity (IC50, inhibition of TNFα binding to TNFα R1/Fc), Table 2
In short: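 Plates were coated with TNFα at 15 nM. Test compound and 8.33 nM receptor-Fc (PBST, 2% DMSO) were first mixed in solution for 30 min at room temperature, then transferred to the plates for another 30 min. Competition was read by absorbance at 450 nm after HRP anti-human IgG Fc detection with TMB.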

Compound | IC50 [µM]
O=C1COc2ccc(cc2)C[C@@H](C(=O)N[C@H](Cc2ccccc2)C(=O)O)NC(=O)[C@H](Cc2cccs2)NC(=O)[C@@H](Cc2ccc(-c3ccccc3)cc2)NC(=O)[C@H](Cc2cccs2)N1 [Compound 588] | < 10

Same assay, conditions: Table 2; read-out: Activity (IC50, inhibition of TNFα binding to TNFα R1/Fc)

Compound | IC50 [µM]
O=C(O)[C@@H]1Cc2ccc(cc2)NC(=O)[C@H](O)[C@@H](O)C(=O)N[C@H](Cc2cccs2)C(=O)N[C@@H](Cc2ccc(-c3ccccc3)cc2)C(=O)N[C@H](Cc2ccc(F)cc2)C(=O)N1 [Compound 288] | > 100
O=C1COc2ccc(cc2)C[C@H](C(=O)N[C@H](CCc2ccccc2)C(=O)O)NC(=O)[C@H](Cc2ccccc2F)NC(=O)[C@@H](Cc2ccc(-c3ccccc3)cc2)NC(=O)[C@H](Cc2ccncc2)N1 [Compound 736] | < 10
O=C1COc2ccc(cc2)C[C@@H](C(=O)O)NC(=O)[C@H](Cc2c[nH]c3ccccc23)NC(=O)[C@@H](Cc2ccc(-c3ccccc3)cc2)NC(=O)[C@H](Cc2ccncc2)N1 [Compound 653] | < 10
O=C1CCC(=O)N[C@H](C2Cc3ccccc3C2)C(=O)N[C@@H](Cc2ccc(C(F)(F)F)cc2)C(=O)N[C@H](Cc2ccccc2)C(=O)N[C@H](C(=O)O)Cc2ccc(cc2)N1 [Compound 165] ([dIgl][Phe(4-CF3)][dF][Phe(4-NH2)]-OH; linker N-4 via Suc) | > 100
Cn1cnc(C[C@@H]2NC(=O)COc3ccc(cc3)C[C@@H](C(=O)O)NC(=O)[C@H](CCc3ccccc3)NC(=O)[C@@H](Cc3ccc(-c4ccccc4)cc3)NC2=O)c1 [Compound 706] | 10 to 30
O=C1COc2ccc(cc2)C[C@@H](C(=O)O)NC(=O)[C@H](CCc2ccccc2)NC(=O)[C@@H](Cc2ccc(-c3cccnc3)cc2)NC(=O)[C@H](Cc2cccnc2)N1 [Compound 668] | > 100
O=C1CCC(=O)N[C@H](Cc2ccccc2Cl)C(=O)N[C@@H](Cc2ccc(C(F)(F)F)cc2)C(=O)N[C@H](Cc2ccccc2)C(=O)N[C@H](C(=O)O)Cc2ccc(cc2)N1 [Compound 132] ([dPhe(2-Cl)][Phe(4-CF3)][dF][Phe(4-NH2)]-OH; linker N-4 via Suc) | 30 to 100
COc1cccc(C[C@@H]2NC(=O)[C@@H](Cc3cccs3)NC(=O)CCC(=O)Nc3ccc(cc3)C[C@@H](C(=O)O)NC(=O)[C@@H](Cc3ccccc3)NC2=O)c1 [Compound 88] ([d2Thi][Phe(3-OMe)][dF][Phe(4-NH2)]-OH; linker N-4 via Suc) | > 100
O=C1CN(Cc2ccccc2)C(=O)[C@H](Cc2ccc(-c3ccccc3)cc2)NC(=O)[C@H](Cc2cccs2)NC(=O)COc2ccc(cc2)C[C@@H](C(=O)O)N1 [Compound 257] | > 100
O=C1COc2ccc(cc2)C[C@H](C(=O)O)NC(=O)[C@H](Cc2ccccc2)NC(=O)[C@@H](Cc2ccc(-c3ccccc3)cc2)NC(=O)[C@H](Cc2cccs2)N1 [Compound 675] | > 100
O=C1CCC(=O)N[C@H](Cc2cccs2)C(=O)N[C@@H](Cc2ccc(-c3ccccc3)cc2)C(=O)N[C@H](Cc2ccc(Cl)cc2)C(=O)N[C@H](C(=O)O)Cc2ccc(cc2)N1 [Compound 81] ([d2Thi][Bip][dPhe(4-Cl)][Phe(4-NH2)]-OH; linker N-4 via Suc) | > 100
O=C1CCC(=O)N[C@H](CCc2ccccc2)C(=O)N[C@@H](Cc2ccc(-c3ccccc3)cc2)C(=O)N[C@H](Cc2ccccc2)C(=O)N[C@H](C(=O)O)Cc2ccc(cn2)N1 [Compound 546] | < 10
O=C1COc2ccc(cc2)C[C@@H](C(=O)O)NC(=O)[C@H](CCc2ccccc2)NC(=O)[C@@H](Cc2ccc(-c3ccccc3)cc2)NC(=O)[C@H](Cc2ccc(C(F)(F)F)cc2)N1 [Compound 691] | < 10
O=C1COc2ccc(cc2)C[C@@H](C(=O)O)NC(=O)[C@H](Cc2ccccc2)NC(=O)[C@H](Cc2ccc(Br)cc2)NC(=O)[C@H](Cc2cccs2)N1 [Compound 359] | > 100
O=C1COc2ccc(cc2)C[C@@H](C(=O)O)NC(=O)[C@H](Cc2ccccc2)NC(=O)[C@@H](Cc2ccc(-c3ccccc3)cc2)NC(=O)[C@H](Cc2cccs2)N1 [Compound 214] | < 10
O=C1COc2ccc(cc2)C[C@@H](C(=O)O)NC(=O)[C@@H](CCc2ccccc2)NC(=O)C(c2ccc(Br)cc2)NC(=O)[C@@H](Cc2cccs2)N1 (stereo partly shown) [Compound 525] | < 10
O=C(O)[C@@H]1Cc2ccc(cc2)NC(=O)[C@@H](O)[C@H](O)C(=O)N[C@H](Cc2cccs2)C(=O)N[C@@H](Cc2ccc(-c3ccccc3)cc2)C(=O)N[C@H](Cc2ccccc2)C(=O)N1 [Compound 185] | > 100
O=C1CCC(=O)N[C@H](CCc2ccccc2)C(=O)N[C@@H](Cc2ccc(-n3cccn3)cc2)C(=O)N[C@H](Cc2ccccc2)C(=O)N[C@H](C(=O)O)Cc2ccc(cc2)N1 [Compound 115] | > 100
O=C1CCC(=O)N[C@H](Cc2cccs2)C(=O)N[C@@H](Cc2ccc(-c3ccccc3)cc2)C(=O)N[C@H](Cc2ccc(O)cc2)C(=O)N[C@H](C(=O)O)Cc2ccc(cc2)N1 [Compound 59] ([d2Thi][Bip][dY][Phe(4-NH2)]-OH; linker N-4 via Suc) | > 100
O=C(O)[C@H](Cc1ccccc1)NC(=O)[C@@H]1Cc2ccc(cc2)NC(=O)[C@H](O)[C@@H](O)C(=O)N[C@H](Cc2cccs2)C(=O)N[C@@H](Cc2ccc(-c3ccc(Cl)cc3)cc2)C(=O)N[C@H](Cc2ccccc2)C(=O)N1 [Compound 443] | 10 to 30
O=C1N[C@H](Cc2ccco2)C(=O)N[C@@H](C(=O)O)Cc2ccc(cc2)NC(=O)[C@H](O)[C@@H](O)C(=O)N[C@H](Cc2ccccc2)C(=O)N[C@H]1Cc1ccc(Br)cc1 [Compound 161] | > 100
CC(=O)O[C@H]1C(=O)Nc2ccc(cc2)C[C@@H](C(=O)O)NC(=O)[C@@H](Cc2ccccc2)NC(=O)[C@H](Cc2ccc(-c3ccccc3)cc2)NC(=O)[C@@H](Cc2cccs2)NC(=O)[C@@H]1OC(C)=O [Compound 223] ([d2Thi][Bip][dF][Phe(4-NH2)]-OH; linker N-4 via Tartaroyl(2R,3R-(OAc)2)) | 30 to 100
O=C1COc2ccc(cc2)C[C@@H](C(=O)O)NC(=O)[C@@H](Cc2cccc(C(F)(F)F)c2)NC(=O)[C@H](Cc2ccc(-c3ccccc3)cc2)NC(=O)[C@@H](Cc2cccs2)N1 [Compound 533] | > 100
N[C@@H]1CC(=O)Nc2ccc(cc2)C[C@@H](C(=O)O)NC(=O)[C@@H](Cc2ccccc2)NC(=O)[C@H](Cc2ccc(-c3ccccc3)cc2)NC(=O)[C@@H](Cc2cccs2)NC1=O [Compound 372] (H-[dD][d2Thi][Bip][dF][Phe(4-NH2)]-OH; lactam 1-5) | > 100
O=C(O)CC[C@H]1NC(=O)[C@H](Cc2ccc(-c3ccccc3)cc2)NC(=O)[C@@H](Cc2cccs2)NC(=O)CCC(=O)Nc2ccc(cc2)C[C@@H](C(=O)O)NC1=O [Compound 69] ([d2Thi][Bip][dE][Phe(4-NH2)]-OH; linker N-4 via Suc) | > 100
CC(=O)O[C@H]1C(=O)Nc2ccc(cc2)C[C@H](C(=O)O)NC(=O)[C@@H](CCc2ccccc2)NC(=O)[C@H](Cc2ccc(Br)cc2)NC(=O)[C@@H](Cc2ccccc2)NC(=O)[C@@H]1OC(C)=O [Compound 218] ([dF][Phe(4-Br)][d(hPhe)][dPhe(4-NH2)]-OH; linker N-4 via Tartaroyl(2R,3R-(OAc)2)) | 10 to 30
O=C1CCC(=O)N[C@H](Cc2cccs2)C(=O)N[C@@H](Cc2cccc(O)c2)C(=O)N[C@H](Cc2ccccc2)C(=O)N[C@H](C(=O)O)Cc2ccc(cc2)N1 [Compound 102] ([d2Thi][mTyr][dF][Phe(4-NH2)]-OH; linker N-4 via Suc) | > 100
